PMC10057480, “Expanding the Library of 1,2,4-Oxadiazole Derivatives: Discovery of New Farnesoid X Receptor (FXR) Antagonists/Pregnane X Receptor (PXR) Agonists” (Molecules, 2023)
Values joined by “and” are separate entries in the source; they are usually repeats but may differ in a detail not shown here. Equal entries are not always repeated.

How the values were obtained:
[1] = biological target: T1, FXR (Homo sapiens, UniProt Q96RI1); test: FXR luciferase reporter transactivation assay (antagonism) on HepG2 cells; assay type: cell-based; conditions: at least three experiments; for FXR Antagonism Eff (%): HepG2 transactivation, compounds at 50 μM, percent inhibition of transactivation set at 100%, mean ± SD; for IC50: transactivation assay, concentration-response, mean ± SEM
T1 construct: expressed in transfected cells; host or cells: HepG2
T1 sequence (Q96RI1 1-486): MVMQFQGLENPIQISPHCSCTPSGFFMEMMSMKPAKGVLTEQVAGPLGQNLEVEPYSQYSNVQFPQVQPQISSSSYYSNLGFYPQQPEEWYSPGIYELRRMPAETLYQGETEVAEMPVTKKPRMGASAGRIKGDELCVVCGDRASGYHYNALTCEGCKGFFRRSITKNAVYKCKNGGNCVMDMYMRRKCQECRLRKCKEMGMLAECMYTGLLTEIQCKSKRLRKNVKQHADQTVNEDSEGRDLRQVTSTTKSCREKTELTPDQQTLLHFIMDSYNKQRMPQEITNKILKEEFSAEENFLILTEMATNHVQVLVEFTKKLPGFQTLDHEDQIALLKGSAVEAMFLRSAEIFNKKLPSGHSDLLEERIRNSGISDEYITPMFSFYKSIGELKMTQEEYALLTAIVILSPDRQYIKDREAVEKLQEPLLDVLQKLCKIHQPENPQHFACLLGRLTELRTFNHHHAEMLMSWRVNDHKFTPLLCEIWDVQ
Procedure: The antagonistic activity on FXR was investigated using HepG2 cells transfected with 100 ng of pSG5-FXR and pSG5-RXR, 200 ng of the reporter vector p(hsp27)-TK-LUC containing the FXR response element, and 100 ng of the pGL4.70 vector encoding the human Renilla gene used as a transfection control. […] In another experimental setting, HepG2 cells were transfected using 100 ng of pSG5-PXR, 100 ng of pSG5-RXR, and 100 ng of pGL4.70, along with the reporter vector pGL3(henance)PXRE. At 24 h post-transfection, cells were stimulated with rifaximin 10 μM (as a positive control) or compounds 2–11 (10 μM). The specificity of compounds 5 and 11 versus FXR and PXR was tested using HepG2 cells transiently transfected with 200 ng of the reporter vector p(UAS)5XTKLuc, 100 ng of a vector containing the ligand binding domain of LXRα or LXRβand 100 ng of pGL4.70, a vector encoding the human Renilla gene. At 24 h post-transfection, cells were stimulated for 18 h with GW3965 (5 μM), compounds 5 and 11 (10 μM), and the combination of GW3965 plus 5 or 11 (50 μM). Cellular lysate was assayed for luciferase and Renilla activities after 18 h using the Dual-Luciferase Reporter assay system (E1980, Promega, Madison, WI, USA). The activity of luciferase was measured using the Glomax 20/20 luminometer (Promega, Madison, WI, USA) and normalized with Renilla activities.

[2] = biological target: T2, PXR (Homo sapiens, UniProt O75469); test: PXR luciferase reporter transactivation assay (agonism) on HepG2 cells; assay type: cell-based; conditions: compound 10 μM, maximal transactivation compared to Rifaximin 10 μM, mean ± SD, at least three experiments
T2 construct: expressed in transfected cells; host or cells: HepG2
T2 sequence (O75469 1-434): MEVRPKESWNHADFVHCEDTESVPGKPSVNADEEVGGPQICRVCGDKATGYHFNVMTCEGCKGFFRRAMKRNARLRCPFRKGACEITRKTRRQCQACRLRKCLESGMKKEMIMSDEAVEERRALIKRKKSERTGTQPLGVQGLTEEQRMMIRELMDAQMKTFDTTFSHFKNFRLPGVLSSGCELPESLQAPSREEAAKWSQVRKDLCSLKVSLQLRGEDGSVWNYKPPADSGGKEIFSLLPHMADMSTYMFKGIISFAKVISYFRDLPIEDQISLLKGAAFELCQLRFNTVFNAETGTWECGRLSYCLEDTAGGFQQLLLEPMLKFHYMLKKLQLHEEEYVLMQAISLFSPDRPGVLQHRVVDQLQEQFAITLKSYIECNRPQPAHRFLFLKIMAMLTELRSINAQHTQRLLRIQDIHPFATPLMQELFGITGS
T2 sequence (P19793 1-462 partner): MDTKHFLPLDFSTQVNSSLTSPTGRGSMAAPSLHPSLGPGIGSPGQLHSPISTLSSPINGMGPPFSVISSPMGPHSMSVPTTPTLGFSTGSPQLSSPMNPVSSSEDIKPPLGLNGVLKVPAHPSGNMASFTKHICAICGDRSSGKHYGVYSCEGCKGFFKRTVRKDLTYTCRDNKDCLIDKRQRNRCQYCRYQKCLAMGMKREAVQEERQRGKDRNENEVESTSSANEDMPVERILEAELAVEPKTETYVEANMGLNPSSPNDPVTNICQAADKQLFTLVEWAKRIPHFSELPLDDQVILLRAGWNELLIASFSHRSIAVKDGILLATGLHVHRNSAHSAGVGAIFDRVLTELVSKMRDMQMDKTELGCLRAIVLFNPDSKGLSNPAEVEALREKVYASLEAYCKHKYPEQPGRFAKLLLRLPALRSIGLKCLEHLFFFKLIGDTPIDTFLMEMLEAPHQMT
Procedure: The antagonistic activity on FXR was investigated using HepG2 cells transfected with 100 ng of pSG5-FXR and pSG5-RXR, 200 ng of the reporter vector p(hsp27)-TK-LUC containing the FXR response element, and 100 ng of the pGL4.70 vector encoding the human Renilla gene used as a transfection control. Cells were stimulated with the agonist 6-ECDCA (10 µM) alone or in combination with compounds 2–11 after 24 h. In another experimental setting, HepG2 cells were transfected using 100 ng of pSG5-PXR, 100 ng of pSG5-RXR, and 100 ng of pGL4.70, along with the reporter vector pGL3(henance)PXRE. At 24 h post-transfection, cells were stimulated with rifaximin 10 μM (as a positive control) or compounds 2–11 (10 μM). The specificity of compounds 5 and 11 versus FXR and PXR was tested using HepG2 cells transiently transfected with 200 ng of the reporter vector p(UAS)5XTKLuc, 100 ng of a vector containing the ligand binding domain of LXRα or LXRβand 100 ng of pGL4.70, a vector encoding the human Renilla gene. At 24 h post-transfection, cells were stimulated for 18 h with GW3965 (5 μM), compounds 5 and 11 (10 μM), and the combination of GW3965 plus 5 or 11 (50 μM). Cellular lysate was assayed for luciferase and Renilla activities after 18 h using the Dual-Luciferase Reporter assay system (E1980, Promega, Madison, WI, USA). The activity of luciferase was measured using the Glomax 20/20 luminometer (Promega, Madison, WI, USA) and normalized with Renilla activities.

CCCCCN1CCC(c2nc(-c3ccc4ccccc4c3)no2)CC1 [Compound 5, 3-(Naphthalen-2-yl)-5-(1-pentylpiperidin-4-yl)-1,2,4-oxadiazole]
FXR Antagonism Eff (%) [1]: 66% and 66 ± 1%
IC50 [1]: 8.4 ± 2 µM
PXR Agonism Eff (%) [2]: 71% and 71 ± 4%

OCc1ccc(CN2CCC(c3nc(-c4ccc5ccccc5c4)no3)CC2)cc1 [Compound 11, 5-[1-(4-(Hydroxymethyl)benzyl)piperidin-4-yl]-3-(naphthalen-2-yl)-1,2,4-oxadiazole]
FXR Antagonism Eff (%) [1]: 72% and 72 ± 6%
IC50 [1]: 4.4 ± 0.4 µM
PXR Agonism Eff (%) [2]: 105% and 105 ± 15%
